In EP0497314A1, “Use of azapirones in attention deficit hyperactivity disorder” (Bristol-Myers Squibb Company, priority 1991, dated 1992):
Where a name gives a salt, the structure may show the parent alone. Marks after values point to notes of the source that are not given here.

Key:
rabbit cortex = experiment: Quantitative EEG, rabbit cortex, intravenous administration; assay type: in vivo, rabbits; details: for group percent change in electrical energy from pre-drug control, Δ band / mean change ± S.E. in electrical energy from pre-drug control, Δ band: Δ = 0.5-3.5 Hz; for group percent change in electrical energy from pre-drug control, α band / mean change ± S.E. in electrical energy from pre-drug control, α band: α= 7-13 Hz; for group percent change in electrical energy from pre-drug control, β band / mean change ± S.E. in electrical energy from pre-drug control, β band: β= 13-25 Hz; for group percent change in electrical energy from pre-drug control, γ band / mean change ± S.E. in electrical energy from pre-drug control, γ band: γ= 25-40 Hz; for group percent change in electrical energy from pre-drug control, θ band / mean change ± S.E. in electrical energy from pre-drug control, θ band: θ= 3.5-7.0 Hz
Procedure, shortened: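 Restrained rabbits with cortical leads had EEG split into Δ, ϑ, α, β and γ bands and integrated over 1 h from the moment of i.v. injection, in saline, dosed as free base. Counts were compared with each animal's own pretreatment control by paired t-test (p≦0.05). Doses were reduced geometrically to a no-effect level.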

[1] = test system: fronto-occipital cortex of the cat; experiment: Quantitative EEG, fronto-occipital cat cortex, subcutaneous administration; assay type: in vivo, cats; details: for EEG profile: cat cortex; for group percent change in electrical energy from pre-drug control, Δ band / mean change ± S.E. in electrical energy from pre-drug control, Δ band / group percent change in electrical energy from pre-drug control, α band / mean change ± S.E. in electrical energy from pre-drug control, α band / group percent change in electrical energy from pre-drug control, β band / mean change ± S.E. in electrical energy from pre-drug control, β band / group percent change in electrical energy from pre-drug control, γ band / mean change ± S.E. in electrical energy from pre-drug control, γ band / group percent change in electrical energy from pre-drug control, θ band / mean change ± S.E. in electrical energy from pre-drug control, θ band: fronto-occipital cat cortex; for group percent change in electrical energy from pre-drug control, α band / mean change ± S.E. in electrical energy from pre-drug control, α band: α= 7-13 Hz; for group percent change in electrical energy from pre-drug control, β band / mean change ± S.E. in electrical energy from pre-drug control, β band: β= 13-25 Hz; for group percent change in electrical energy from pre-drug control, γ band / mean change ± S.E. in electrical energy from pre-drug control, γ band: γ= 25-40 Hz; for group percent change in electrical energy from pre-drug control, θ band / mean change ± S.E. in electrical energy from pre-drug control, θ band: θ= 3.5-7.0 Hz
Procedure, shortened: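 Adult female mongrel cats (n=6 per group) with implanted electrodes were recorded while held in restraining bags, with EEG filtered into Δ, ϑ, α, β and γ bands and integrated as energy counts. Drugs were given subcutaneously in saline, with doses calculated as free base, and recording started 30 min post-injection. Changes from each animal's pre-treatment control were tested by paired Student t-test (P≦0.05).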

[2] = test system: attention deficit hyperactivity disorder; experiment: Treatment of children with attention deficit hyperactivity disorder (Examples 1 and 2); assay type: in vivo, child
Protocol: Buspirone is administered to a person, who has been identified by a clinician as having the symptoms associated with attention deficit hyperactivity disorder. During treatment, the child received […] of buspirone twice a day.
Buspirone is administered to a person, who has been identified by a clinician as having the symptoms associated with attention deficit hyperactivity disorder. During the treatment, the child received […] of buspirone three times a day.

[3] = test system: evoked electrographic activity; details: limited number of cats; John, et al, 1973; cited from earlier work
[4] = rabbit cortex, 0.25 mg/kg free base i.v.
[5] = rabbit cortex, 0.50 mg/kg free base i.v.
[6] = Δ = 0.05-35 Hz, 0.125 mg/kg free base s.c.
[7] = Δ = 0.05-35 Hz, 0.5 mg/kg free base s.c.
[8] = Δ = 0.5-3.5 Hz, 0.25 mg/kg free base s.c.
[9] = Δ = 0.5-3.5 Hz, 2.0 mg/kg free base s.c.
[10] = Δ = 0.5-3.5 Hz, 8.0 mg/kg free base s.c.
[11] = child with symptoms of attention deficit hyperactivity disorder, 5 mg/kg twice a day

O=C1CC2(CCCC2)CC(=O)N1CCCCN1CCN(c2ncccn2)CC1 [Buspirone HCl, buspirone hydrochloride]
minimal effective dose (rabbit cortex; Oryctolagus cuniculus, iv, rabbit cortex EEG, dose of free base, read-out: the minimum dose required to produce the EEG profile characteristic of that particular drug): 0.5 mg/kg | the no-effect dose (rabbit cortex; rabbit cortex EEG, dose of free base): 0.25† mg/kg, i.v. | EEG profile (rabbit cortex; rabbit cortex, i.v.): shares a component of stimulation similar to that of methylphenidate and dextroamphetamine | group percent change in electrical energy from pre-drug control, Δ band (rabbit cortex; [4]): 0% | mean change ± S.E. in electrical energy from pre-drug control, Δ band (rabbit cortex; [4]): -1 ± 18 instrument counts | group percent change in electrical energy from pre-drug control, Δ band (rabbit cortex; [5]): -34% | mean change ± S.E. in electrical energy from pre-drug control, Δ band (rabbit cortex; [5]): -114 ± 25 instrument counts | group percent change in electrical energy from pre-drug control, α band (rabbit cortex; [4]): -1% | mean change ± S.E. in electrical energy from pre-drug control, α band (rabbit cortex; [4]): -2 ± 12 instrument counts | group percent change in electrical energy from pre-drug control, α band (rabbit cortex; [5]): -32% | mean change ± S.E. in electrical energy from pre-drug control, α band (rabbit cortex; [5]): -70 ± 13 instrument counts | group percent change in electrical energy from pre-drug control, β band (rabbit cortex; [4]): -4% | mean change ± S.E. in electrical energy from pre-drug control, β band (rabbit cortex; [4]): -5 ± 7 instrument counts | group percent change in electrical energy from pre-drug control, β band (rabbit cortex; [5]): -28% | mean change ± S.E. in electrical energy from pre-drug control, β band (rabbit cortex; [5]): -47 ± 10 instrument counts | group percent change in electrical energy from pre-drug control, γ band (rabbit cortex; [4]): -5% | mean change ± S.E. in electrical energy from pre-drug control, γ band (rabbit cortex; [4]): -5 ± 2 instrument counts | group percent change in electrical energy from pre-drug control, γ band (rabbit cortex; [5]): -14% | mean change ± S.E. in electrical energy from pre-drug control, γ band (rabbit cortex; [5]): -17 ± 3 instrument counts | group percent change in electrical energy from pre-drug control, θ band (rabbit cortex; [4]): -5% | mean change ± S.E. in electrical energy from pre-drug control, θ band (rabbit cortex; [4]): -10 ± 14 instrument counts | group percent change in electrical energy from pre-drug control, θ band (rabbit cortex; [5]): -35% | mean change ± S.E. in electrical energy from pre-drug control, θ band (rabbit cortex; [5]): -86 ± 11 instrument counts | minimal effective dose ([1]; Felis catus, sc, fronto-occipital cat cortex EEG, dose of free base, read-out: the minimum dose required to produce the EEG profile characteristic of that particular drug): 0.25 mg/kg | doses required to produce the combined antipsychotic-stimulant EEG profile ([1]; cat cortex EEG, s.c.): at least twice that of thioridazine and chlorpromazine | EEG profile ([1]; 8.0 mg/kg dose, s.c.): causes an increase in electrical "power" in the lowest frequency bands | EEG profile ([1]; higher dose (2.0 and 8.0 mg/kg, s.c.)): elicit a profile which deviates from that produced by the stimulants | the no-effect dose ([1]; fronto-occipital cat cortex EEG, dose of free base): 0.125† mg/kg, s.c. | group percent change in electrical energy from pre-drug control, Δ band [1, 6]: -21% | mean change ± S.E. in electrical energy from pre-drug control, Δ band [1, 6]: -46 ± 27 instrument counts | group percent change in electrical energy from pre-drug control, Δ band [1, 7]: -14% | mean change ± S.E. in electrical energy from pre-drug control, Δ band [1, 7]: -31 ± 18 instrument counts | group percent change in electrical energy from pre-drug control, Δ band [1, 8]: +5% | mean change ± S.E. in electrical energy from pre-drug control, Δ band [1, 8]: +10 ± 8 instrument counts | group percent change in electrical energy from pre-drug control, Δ band [1, 9]: +15% | mean change ± S.E. in electrical energy from pre-drug control, Δ band [1, 9]: +30 ± 22 instrument counts | group percent change in electrical energy from pre-drug control, Δ band [1, 10]: +55% | mean change ± S.E. in electrical energy from pre-drug control, Δ band [1, 10]: +89 ± 29 instrument counts | group percent change in electrical energy from pre-drug control, α band ([1]; 0.125 mg/kg free base s.c.): -18% | mean change ± S.E. in electrical energy from pre-drug control, α band ([1]; 0.125 mg/kg free base s.c.): -23 ± 12 instrument counts | group percent change in electrical energy from pre-drug control, α band ([1]; 0.25 mg/kg free base s.c.): -26% | mean change ± S.E. in electrical energy from pre-drug control, α band ([1]; 0.25 mg/kg free base s.c.): -35 ± 6 instrument counts | group percent change in electrical energy from pre-drug control, α band ([1]; 0.5 mg/kg free base s.c.): -39% | mean change ± S.E. in electrical energy from pre-drug control, α band ([1]; 0.5 mg/kg free base s.c.): -47 ± 12 instrument counts | group percent change in electrical energy from pre-drug control, α band ([1]; 2.0 mg/kg free base s.c.): -15% | mean change ± S.E. in electrical energy from pre-drug control, α band ([1]; 2.0 mg/kg free base s.c.): -20 ± 14 instrument counts | group percent change in electrical energy from pre-drug control, α band ([1]; 8.0 mg/kg free base s.c.): -6% | mean change ± S.E. in electrical energy from pre-drug control, α band ([1]; 8.0 mg/kg free base s.c.): -5 ± 14 instrument counts | group percent change in electrical energy from pre-drug control, β band ([1]; 0.125 mg/kg free base s.c.): -6% | mean change ± S.E. in electrical energy from pre-drug control, β band ([1]; 0.125 mg/kg free base s.c.): -6 ± 4 instrument counts | group percent change in electrical energy from pre-drug control, β band ([1]; 0.25 mg/kg free base s.c.): -17% | mean change ± S.E. in electrical energy from pre-drug control, β band ([1]; 0.25 mg/kg free base s.c.): -24 ± 5 instrument counts | group percent change in electrical energy from pre-drug control, β band ([1]; 0.5 mg/kg free base s.c.): -23% | mean change ± S.E. in electrical energy from pre-drug control, β band ([1]; 0.5 mg/kg free base s.c.): -24 ± 3 instrument counts | group percent change in electrical energy from pre-drug control, β band ([1]; 2.0 mg/kg free base s.c.): -24% | mean change ± S.E. in electrical energy from pre-drug control, β band ([1]; 2.0 mg/kg free base s.c.): -33 ± 8 instrument counts | group percent change in electrical energy from pre-drug control, β band ([1]; 8.0 mg/kg free base s.c.): -21% | mean change ± S.E. in electrical energy from pre-drug control, β band ([1]; 8.0 mg/kg free base s.c.): -22 ± 7 instrument counts | group percent change in electrical energy from pre-drug control, γ band ([1]; 0.125 mg/kg free base s.c.): +5% | mean change ± S.E. in electrical energy from pre-drug control, γ band ([1]; 0.125 mg/kg free base s.c.): +4 ± 3 instrument counts | group percent change in electrical energy from pre-drug control, γ band ([1]; 0.25 mg/kg free base s.c.): 0% | mean change ± S.E. in electrical energy from pre-drug control, γ band ([1]; 0.25 mg/kg free base s.c.): -1 ± 3 instrument counts | group percent change in electrical energy from pre-drug control, γ band ([1]; 0.5 mg/kg free base s.c.): -5% | mean change ± S.E. in electrical energy from pre-drug control, γ band ([1]; 0.5 mg/kg free base s.c.): -4 ± 4 instrument counts | group percent change in electrical energy from pre-drug control, γ band ([1]; 2.0 mg/kg free base s.c.): -9% | mean change ± S.E. in electrical energy from pre-drug control, γ band ([1]; 2.0 mg/kg free base s.c.): -10 ± 3 instrument counts | group percent change in electrical energy from pre-drug control, γ band ([1]; 8.0 mg/kg free base s.c.): -3% | mean change ± S.E. in electrical energy from pre-drug control, γ band ([1]; 8.0 mg/kg free base s.c.): -2 ± 3 instrument counts | group percent change in electrical energy from pre-drug control, θ band ([1]; 0.125 mg/kg free base s.c.): -22% | mean change ± S.E. in electrical energy from pre-drug control, θ band ([1]; 0.125 mg/kg free base s.c.): -32 ± 16 instrument counts | group percent change in electrical energy from pre-drug control, θ band ([1]; 0.25 mg/kg free base s.c.): -16% | mean change ± S.E. in electrical energy from pre-drug control, θ band ([1]; 0.25 mg/kg free base s.c.): -21 ± 6 instrument counts | group percent change in electrical energy from pre-drug control, θ band ([1]; 0.5 mg/kg free base s.c.): -32% | mean change ± S.E. in electrical energy from pre-drug control, θ band ([1]; 0.5 mg/kg free base s.c.): -46 ± 14 instrument counts | group percent change in electrical energy from pre-drug control, θ band ([1]; 2.0 mg/kg free base s.c.): +13% | mean change ± S.E. in electrical energy from pre-drug control, θ band ([1]; 2.0 mg/kg free base s.c.): +17 ± 15 instrument counts | group percent change in electrical energy from pre-drug control, θ band ([1]; 8.0 mg/kg free base s.c.): +34% | mean change ± S.E. in electrical energy from pre-drug control, θ band ([1]; 8.0 mg/kg free base s.c.): +35 ± 15 instrument counts | clinical response during and after treatment [2, 11]: spectacular and very fast improvement | sleep disturbance [2, 11]: no sleep disturbance | clinical response during and after treatment ([2]; with symptoms of attention deficit hyperactivity disorder, 5 mg/kg three times a day): excellent response | effect on evoked electrographic activity [3]: possessed properties similar to both chlorpromazine and methamphetamine
